In US12133541B2, “Feed composition comprising hexahydro-β-acid component compounds and application thereof” (WISORIG TECHNOLOGIES PTE. LIMITED, priority 2019, dated 2024):
“Also recorded” adds a separate entry of the source. Like-named read-outs stand apart in the source and are kept apart here.

Legend:
[1] = Thermal stability testing at 60° C. (HPLC); conditions: for Concentration (%) Day 5 / Concentration (%) Day 10: day 0 = 100%; for degradation ratio: 10-day testing period
Method: (§1) 50 mg of standard substance was accurately weighed out and dissolved in an appropriate amount of methanol by ultrasonication. The solution was then transferred to a 50 mL volumetric flask and diluted to volume with methanol to give a stock solution. Working solutions with concentration as 25 ppm, 125 ppm, 250 ppm, 500 ppm, and 1000 ppm were prepared respectively by the dilution of appropriate amount of the stock solution.
(§2) • Column: Symmetry C18 column (Waters; 250 mm*4.6 mm, 5 μm) • Mobile phase: 0.02% phosphoric acid:methanol=5:95 (v:v) • Wavelength: 223 nm • Column temperature: 25° C. • Injection volume: 10 μL • Flow rate: 1 mL/min
(§3) Thermal stability testing: The test samples were spread in petri dishes to form thin layers of ≤5 mm and placed in a drug stability testing chambers at 60° C. Samples were taken with 3 replications in parallel for each of test samples on day 5 and day 10 for HPLC analysis.

[2] = Stability testing at ambient temperature of feeds (HPLC); assay type: physicochemical; conditions: for Concentration (%) Day 5 / Concentration (%) Day 10: room temperature, day 0 = 100%
Excerpt: Stability testing at ambient temperature: The samples were placed in a room-temperature environment. Samples were taken on day 5 and day 10 for HPLC analysis, and three replications were taken in parallel for each test sample.

[3] = Breeding experiment: production performance of hogs; assay type: in vivo, Duroc×Landrace×Yorkshire cross-bred bacon-type piglets; conditions: for ADFI (g/d per piglet) / ADG (g/d per piglet) / FCR: basal ration with 25 ppm of active ingredient; for ADFI (g/d per piglet) / ADG (g/d per piglet) / FCR / change rate of feed intake compared with the control group / change rate of weight gain compared with the control group / decrease rate of feed conversion ratio compared with the control group / animal production performance compared with the hexahydro-β-acids (in words): 14 days; for ADFI (g/d per piglet) / ADG (g/d per piglet): 67-day-old piglets; for FCR: feed intake/weight gain; for change rate of feed intake compared with the control group / change rate of weight gain compared with the control group / decrease rate of feed conversion ratio compared with the control group / animal production performance compared with the hexahydro-β-acids (in words) / average daily weight gain vs control (in words): piglets; for change rate of feed intake compared with the control group / change rate of weight gain compared with the control group / decrease rate of feed conversion ratio compared with the control group / animal production performance compared with the hexahydro-β-acids (in words): 25 ppm; for average daily weight gain vs control (in words): difference above 5% deemed obvious
Excerpt: 240 67-day-old Duroc×Landrace×Yorkshire cross-bred bacon-type piglets with similar body weight, were randomly divided into 8 groups, with 3 replications per group, 10 piglets per replication and equal amount of males and females. The pig pen and tools were sterilized before the experiment. During the experiment, the piglets were kept in separate regions in the same pig pen under the same feeding and management conditions. The piglets were given ad libitum access to food and water, and feeds were provided twice every day. The groups were control group (group 1) and test groups 2 to 8, wherein piglets of the control group were given basal ration only, those of the test groups 2 to 8 were respectively given basal ration in combination with different additives with 25 ppm of active ingredient thereof, wherein the active ingredient was hexahydro-β-acids, or the hexahydro-β-acid compounds, or the coated substances of the hexahydro-β-acid compounds, as shown in Table 3.
During the entire process, each test group was not given other antioxidants or growth promoters. The experiment lasted for 14 days. On the 14th day, after withdrawing feed (without withdrawing water) for 12 hours, taking each replicate as one unit, the weight of each replication piglets was measured and each of average daily feed intake (ADFI, g/d per piglet), average daily weigh gain (ADG, g/d per piglet), and feed conversion ratio (FCR) was calculated. Average daily feed intake=(Total weight of provided feed−Weight of remaining feed)/(Number of days×Amount of piglets in each replicate) Average daily weight gain=(final average body weight−initial average body weight)/number of test days Feed conversion ratio=average daily feed intake/average daily weight gain

[4] = Breeding experiment: production performance of broilers; assay type: in vivo, yellow broilers; conditions: 30 days; for ADFI (g/d per broiler) / ADG (g/d per broiler) / FCR: basal ration with 25 ppm of active ingredient; for ADFI (g/d per broiler) / ADG (g/d per broiler): 1-day-old yellow broilers; for FCR: feed intake/weight gain
Method: The experiment was conducted with single-factor randomized design. 720 1-day-old yellow broilers with a similar average body weight of 50 g, were randomly divided into 8 groups, with 6 replicates per group, equal amount of males and females and 15 yellow broilers per replicate. The chicken house and tools were sterilized before the experiment. During the experiment, the broilers were kept in separate regions in the same chicken house under the same feeding and management conditions. Basal ration mainly consisted of corn and soybean meal. During the entire process, each group was not given other antioxidants or growth promoters. The groups were control group (group 1) and test groups 2 to 8, wherein the control group was given basal ration only, while the test groups 2 to 8 were respectively given basal ration in combination with the different additives with 25 ppm of the active ingredient thereof, wherein the active ingredient was hexahydro-β-acids, or the hexahydro-β-acid compounds, or the coated substances of the hexahydro-β-acid compounds as shown in Table 4.
The experiment lasted for 30 days. The broilers were given ad libitum access to food and water, and feeds were provided twice every day. At the day when the broilers were 31-day old (after withdrawing feed for 12 hours, without withdrawing water), taking each replicate as one unit, body weight of the broilers was measured, and each of average daily feed intake (ADFI, g/d per broiler), average daily weigh gain (ADG, g/d per broiler), and feed conversion ratio (FCR) was calculated. Feed conversion ratio (FCR)=average daily feed intake/average daily weight gain

[5] = 10 day, 1 wt %
Method: as §1, §2, §3

[6] = 1% premix of hexahydro-β-acid compound
[7] = component within 1% premix of hexahydro-β-acids
[8] = component within hexahydro-β-acids
[9] = hexahydro-β-acid compound (free or coated substance)
[10] = component within feed comprising 25 ppm of hexahydro-β-acids
[11] = feed comprising 25 ppm of hexahydro-β-acid compound

| Compound | Concentration (%) Day 5 [1, 6] [%] | Concentration (%) Day 10 [1, 6] [%] | Concentration (%) Day 5 [1, 7] [%] | Concentration (%) Day 10 [1, 7] [%] | Concentration (%) Day 5 [1, 8] [%] | Concentration (%) Day 10 [1, 8] [%] | Concentration (%) Day 5 [1, 9] [%] | Concentration (%) Day 10 [1, 9] [%] | stability in feeds (in words) ([2]; ambient temperature) | Concentration (%) Day 5 [2, 10] [%] | Concentration (%) Day 10 [2, 10] [%] | ADFI (g/d per piglet) [3] [g/d per piglet] | ADG (g/d per piglet) [3] [g/d per piglet] | FCR [3] | change rate of feed intake compared with the control group [3] [%] | change rate of weight gain compared with the control group [3] [%] | decrease rate of feed conversion ratio compared with the control group [3] [%] | ADFI (g/d per broiler) [4] [g/d per broiler] | ADG (g/d per broiler) [4] [g/d per broiler] | FCR [4] | further results |
| --- | --- | --- | --- | --- | --- | --- | --- | --- | --- | --- | --- | --- | --- | --- | --- | --- | --- | --- | --- | --- | --- |
| hexahydro-lupulone [reference compound] | 92.37 | 91.21 | 89.92 | 87.62 | 91.97 | 79.62 | 99.10 | 92.85 | very poor stability in feeds | 63.08 | 0 | 864 | 358 | 2.413 | −1.03 | 0 | 0.98 | 49.13 | 23.58 | 2.08 | degradation ratio ([1]; 1% premix of the compound): 8.8%; degradation ratio ([1]; compound or coated substance): 7.2%; decrease of active compound in feed ([2]; ambient temperature, 10-day period, feed with 25 ppm): 95%; Concentration (%) Day 5 [2, 11]: 17.78%; Concentration (%) Day 10 [2, 11]: 4.96%; change rate of feed intake compared with the control group ([4]; broilers, 25 ppm): −0.85%; change rate of weight gain compared with the control group ([4]; broilers, 25 ppm): 1.90%; decrease rate of feed conversion ratio compared with the control group ([4]; broilers, 25 ppm): 2.80% |
| CC(C)CCC1=C(O)C(C(=O)C(C)C)=C(O)C(CCC(C)C)(CCC(C)C)C1=O [Hexahydro-colupulone, hexahydro-colupulone] | 99.39 | 97.39 | 97.02 | 97.56 | 96.48 | 90.43 | 99.76 | 99.10 | excellent short-term stability; also recorded: favourable stability | 53.88 | 37.69 | 894 | 403 | 2.218 | 2.40 | 12.57 | 8.99 | 49.68 | 25.19 | 1.97 | decrease in the concentration ([1]; day 10, component within 1% premix of hexahydro-β-acids): about 2.4%; decrease in the concentration ([1]; day 10, component within hexahydro-β-acids): about 10%; degradation ratio [5]: 2.6%; animal production performance compared with the hexahydro-β-acids (in words) [3]: improve the animal production performance effectively; average daily weight gain vs control (in words) [3]: obvious increase; change rate of feed intake compared with the control group ([4]; broilers, 25 ppm): 0.26%; change rate of weight gain compared with the control group ([4]; broilers, 25 ppm): 8.86%; decrease rate of feed conversion ratio compared with the control group ([4]; broilers, 25 ppm): 7.94% |
| hexahydro-adlupulone | 97.24 | 95.68 | 88.97 | 88.63 | 91.48 | 82.87 | 98.01 | 96.63 | excellent short-term stability; also recorded: favourable stability | 60.55 | 0 | 860 | 368 | 2.340 | 1.49 | 2.79 | 3.98 | 50.06 | 24.59 | 2.04 | degradation ratio ([1]; 1% premix of the compound): 4.3%; animal production performance compared with the hexahydro-β-acids (in words) [3]: improve the animal production performance effectively; average daily weight gain vs control (in words) [3]: obvious increase; change rate of feed intake compared with the control group ([4]; broilers, 25 ppm): 1.03%; change rate of weight gain compared with the control group ([4]; broilers, 25 ppm): 6.27%; decrease in feed conversion ratio / feed efficiency (in words) ([4]; broilers, 25 ppm): more effective than hexahydro-β-acids; decrease rate of feed conversion ratio compared with the control group ([4]; broilers, 25 ppm): 4.67% |
